In patent US7056938B1, “Method for scavenging radicals with urocanic acid, derivatives and analogues” (Academisch Ziekenhuis Bij De Univ., priority 1999, dated 2006):

What was measured:
[1] = deoxyribose (dR) degradation test, hydroxyl radical scavenging; format: biochemical
Description: Trans-UCA, cis-UCA, related imidazoles and non-imidazole compounds were tested with regard to their ability to compete with deoxyribose to scavenge hydroxyl radicals. On exposure to hydroxyl radicals deoxyribose is degraded into malondialdehyde, which reacts with thiobarbituric acid to form a pink chromogen. Powerful hydroxyl-radical scavengers will compete with deoxyribose, resulting in a reduced amount of malondialdehyde. Ten compounds, UCA, UCA analogues, alanine and uric acid (FIG. 1) were tested on their ability to scavenge hydroxyl radicals.
Method: the deoxyribose (dR) degradation test. The test was analogous to an earlier described method. Briefly, the reactions were performed in 5 mL screw cap glass tubes in a final volume of 1.0 mL sodium phosphate buffer (50 mM; pH 7.2), containing 3.0 mM 2 deoxy-D-ribose, 0.5 mM hydrogen peroxide and one of the test compounds at graded concentrations. The reaction was started by the addition of premixed disodium EDTA and ferrous iron solution (final concentrations 0.5 mM and 0.2 mM, respectively). The mixture was left for 15 minutes at room temperature. After addition of 1.0 mL 1% thiobarbituric acid in 50 mM NaOH and 0.75 mL 2.8% trichloroacetic acid, the tubes were heated for 20 minutes in a boiling water bath. The pink color was read at 532 nm and reciprocal absorption values were plotted against the concentration of the test compound after subtraction of appropriate blanks. A series of six duplicate determinations from test compound dilutions was employed to construct a graph slope for the calculation of a rate constant value. The mean, SD, number of rate constants and the percentage of inhibition of deoxyribose degradation, calculated for each test compound, are listed. Results. All second-order rate constants for reaction with hydroxyl radicals and, in addition, the percentage inhibition of deoxyribose degradation with equimolar concentrations (3 mM) of scavenger are summarized in Table 1. Trans-UCA and cis-UCA are substantially more powerful in scavenging hydroxyl radicals (8.0 and 7.1×10^3 M^−1,s^−1, respectively), than the other 4-(5-)-substituted imidazoles, including L-histidine (2.6×10^2 M^−1,s^−1). L-histidine, the precursor of UCA, was included as a known moderate scavenger with structural similarities to UCA. L-alanine was used as a known poor scavenger. Trans-FAA was tested as a non-imidazole acrylic acid derivative, having a furan ring instead.
FIG. 2. A determination of the second order rate constants of trans-UCA and cis-UCA with hydroxyl radicals. The rate constant was derived from the slope of the line (k=slope×kdR×[dR]×A0), where A0 is the absorbance, measured in the absence of hydroxyl radical scavenger. KdR was taken as 3.1×10^9 M^−1,s^−1, derived from pulse radiolysis studies, and [dR]=3 mM. […] The other scavengers were studied similarly.

[2] = Fenton oxidation of UCA (Fe2+ / hydrogen peroxide, HPLC); format: physicochemical; settings: for TRANS-UROCANIC ACID LEFT OVER: trans-UCA 40 μM, hydrogen peroxide 500 μM; for YIELD of FENTON OXIDATION PRODUCTS: sum of 8 major peaks
Description: Trans-UCA and cis-UCA were separated from each other and from several UCA oxidation products on a 4.6×250 mm Alltima C18 and Luna C18 reversed-phase column (Alitech, Deerfield, Ill. and Phenomenex, Torrence, Calif., resp.) with a flow of 0.8 mL/min, delivered by P-3500 HPLC-pumps (Pharmacia, Uppsala, Sweden). Samples of 20 to 200 μL were injected by a Promis II autosampler (Spark Holland, Emmen, The Netherlands) and chromatographic data were recorded on an SP 4270 integrator (Spectra Physics, San Jose, Calif.). Peak area data from samples were only processed under identical HPLC circumstances. A UV-detector (Applied Biosystems, model 759A, Foster City, Calif.) was set for 226 nm detection. Isocratic elution was performed with 10 mM ammonium formate buffer, containing 0.2–0.8 mM tetrabutylammonium(TBA)formate and 1% acetonitrile (pH 7.2). Collected fractions were acidified with formic acid up to a final concentration of 100 mM and passed through C18 could phase extraction columns (J T Baker, Deventer, The Netherlands) in order to remove TBA.
[…] In addition, two hydroxyl-radical-generating systems with copper ions (Cu^2+) were used, consisting of 50 μM Cu^2+ with either 500 μM hydrogen peroxide or 5 mM ascorbic acid.
In the next series of experiments we studied the Fenton oxidation of UCA, representing another natural oxidation process. Trans-UCA and cis-UCA isomers were Fenton oxidized by ferorus ions (Fe^2+) and hydrogen peroxide at physiological concentrations. The initial hydrogen peroxide concentration was 500 μM and the ferrous ion concentration was varied from 0 to 500 μM. In all Fenton oxidation reactions the degree of UCA-isomer breakdown was calculated from their reduced peak areas. The oxidation reaction must have been completed within 2 minutes for all reaction conditions, because no further breakdown was observed after prolonged incubation.
When the Fenton reaction was performed in water instead of phosphate buffer, the oxidative breakdown of trans-UCA was enhanced irrespective of the UCA concentration. The turbidity seen in reactions performed in phoshate buffer (10 mM) with high Fe^2+ concentration (>100 μM) was probably due to the formation of insoluble, iron phosphate, thereby reducing the free availability of Fe^2+. Table 3 summarizes the difference between water and phosphate medium for trans-UCA at an initial concentration of 40 μM with respect to its breakdown and the formation of Fenton-oxidation products. Similarly to the photo-oxidation experiments, the peak areas of the 8 major oxidation products were summed. […] A close resemblance was observed between the chromatographic patterns of UCA Fenton oxidation products (not shown) and those of UCA photo-oxidation products. Three of them has been identified (vide infra).
In another series of experiments we studied the Fenton oxidation of UCA, representing another natural oxidation process. The initial hydrogen peroxide concentration was 500 μM in all experiments and the ferrous ion concentration was varied from 0 to 400 μM. Four sets of conditions were compared: […] in phosphate buffer pH 7.2, 2. Fe^2+ in phosphate buffer plus EDTA, 3. Fe^2− without buffer with a initial pH of 5.5–5.3 and 4. Cu^2+ in phosphate buffer plus ascorbate. The degree of breakdown was similar for both UCA isomers.

## O=C(O)/C=C/c1cnc[nH]1 [trans-Urocanic acid, Trans-urocanic acid]
[1]; [SCAVENGER] = [DEOXYRIBOSE] = 3 Mm
  INHIBITION of DEOXYRIBOSE DEGRADATION: 67%
[1]; mean of n slopes, sodium phosphate buffer pH 7.2
  SECOND ORDER RATE CONSTANT for reaction with hydroxyl radicals: 8e+09 M⁻¹ s⁻¹
[1]; single set of FIG. 2, kdR 3.1×10^9, [dR]=3 mM
  second order rate constant in the particular set of FIG. 2: 8.49 ×10^9 M^−1,s^−1
[2]; Fe2+ 0 μM, in phosphate buffer 10 mM pH 7.2
  TRANS-UROCANIC ACID LEFT OVER: 100 (±1) %
[2]; Fe2+ 0 μM, in phosphate buffer
  YIELD of FENTON OXIDATION PRODUCTS: <10 A.U.
[2]; Fe2+ 0 μM, in water
  YIELD of FENTON OXIDATION PRODUCTS: <10 A.U.
  TRANS-UROCANIC ACID LEFT OVER: 100 (±3) %
[2]; Fe2+ 50 μM, in phosphate buffer 10 mM pH 7.2
  TRANS-UROCANIC ACID LEFT OVER: 97 (±1) %
[2]; Fe2+ 50 μM, in phosphate buffer
  YIELD of FENTON OXIDATION PRODUCTS: <10 A.U.
[2]; Fe2+ 50 μM, in water
  YIELD of FENTON OXIDATION PRODUCTS: 194 (±34) A.U.
  TRANS-UROCANIC ACID LEFT OVER: 77 (±11) %
[2]; Fe2+ 100 μM, in phosphate buffer 10 mM pH 7.2
  TRANS-UROCANIC ACID LEFT OVER: 94 (±5) %
[2]; Fe2+ 100 μM, in phosphate buffer
  YIELD of FENTON OXIDATION PRODUCTS: 27 (±5) A.U.
[2]; Fe2+ 100 μM, in water
  YIELD of FENTON OXIDATION PRODUCTS: 272 (±6) A.U.
  TRANS-UROCANIC ACID LEFT OVER: 48 (±7) %
[2]; Fe2+ 250 μM, in phosphate buffer 10 mM pH 7.2
  TRANS-UROCANIC ACID LEFT OVER: 83 (±3) %
[2]; Fe2+ 250 μM, in phosphate buffer
  YIELD of FENTON OXIDATION PRODUCTS: 36 (±3) A.U.
[2]; Fe2+ 250 μM, in water
  YIELD of FENTON OXIDATION PRODUCTS: 423 (±76) A.U.
  TRANS-UROCANIC ACID LEFT OVER: 19 (±8) %
[2]; Fe2+ 500 μM, in phosphate buffer 10 mM pH 7.2
  TRANS-UROCANIC ACID LEFT OVER: 78 (±12) %
[2]; Fe2+ 500 μM, in phosphate buffer
  YIELD of FENTON OXIDATION PRODUCTS: 49 (±9) A.U.
[2]; Fe2+ 500 μM, in water
  YIELD of FENTON OXIDATION PRODUCTS: 511 (±35) A.U.
  TRANS-UROCANIC ACID LEFT OVER: <4%
[2]; initial UCA concentration 250 μM, unbuffered
  broken down by the unbuffered Fenton oxidation system: 78%
